This note sets out measurements from US8629132B2, “Kinase inhibitors” (Genosco, priority 2009, dated 2014).

For assay [1], the target named is T1, SYK (Homo sapiens, UniProt P43405).
T1 construct: Purified full-length human SYK, ZAP70, PIM1, PYK2; purchased Carna Biosciences
Nature of the assay: Kinase inhibition assay: SYK. The format is biochemical. As to conditions: at 1 μM concentration. As to the method: (§1) Compounds of the present invention were tested for their capacity to inhibit a kinase panel which includes, but are not limited to, spleen tyrosine kinase (SYK), zeta-chain-associated protein kinase 70 (ZAP70), PTK2B protein tyrosine kinase 2 (PYK2), focal adhesion kinase (FAK), provirus integration of maloney kinase 1 (PIM1), rearranged during transfection kinase (RET), Fms-like tyrosine kinase 3 (FLT3), Janus kinase 2 (JAK2), and leucine-rich repeat kinase 2 (LRRK2).
(§2) Inhibition of SYK, ZAP70, PYK2, FAK, PIM1, RET, FLT3, JAK2 and LRRK2 Kinase Activity
(§3) Compounds of the invention were initially diluted to 10 mM in 100% DMSO (CALBIOCHEM™) for storage and made into kinase buffer solution to create a compound concentration ranging from 1 uM and 10 uM. Serial dilutions of compounds of the invention were dispensed into a 96-well plate (GREINER BIOSCIENCES™) at 6 μL each. Purified full-length human SYK, ZAP70, PIM1, PYK2 and truncated human FAK, RET, FLT3, JAK2, and LRRK2 (CARNA BIOSCIENCES™) were diluted in kinase buffer and added to the compound solutions and pre-incubated for 30 minutes at room temperature (1 hour for PYK2). […] The reaction mixture was incubated for 1 hour (2 hours for PYK2). Following the incubation, the stop solution made with EDTA, water, and Lance detection buffer ([…]™) was added (12μL each) to stop phosphorylation. […] The IC50 value of test compound was calculated at Gradpad Prism 5 unless specified otherwise.

Assay [2] has as its target T2, ZAP70 (Homo sapiens, UniProt P43403).
T2 construct: Purified full-length human SYK, ZAP70, PIM1, PYK2; purchased Carna Biosciences
T2 sequence (P43403 1-619): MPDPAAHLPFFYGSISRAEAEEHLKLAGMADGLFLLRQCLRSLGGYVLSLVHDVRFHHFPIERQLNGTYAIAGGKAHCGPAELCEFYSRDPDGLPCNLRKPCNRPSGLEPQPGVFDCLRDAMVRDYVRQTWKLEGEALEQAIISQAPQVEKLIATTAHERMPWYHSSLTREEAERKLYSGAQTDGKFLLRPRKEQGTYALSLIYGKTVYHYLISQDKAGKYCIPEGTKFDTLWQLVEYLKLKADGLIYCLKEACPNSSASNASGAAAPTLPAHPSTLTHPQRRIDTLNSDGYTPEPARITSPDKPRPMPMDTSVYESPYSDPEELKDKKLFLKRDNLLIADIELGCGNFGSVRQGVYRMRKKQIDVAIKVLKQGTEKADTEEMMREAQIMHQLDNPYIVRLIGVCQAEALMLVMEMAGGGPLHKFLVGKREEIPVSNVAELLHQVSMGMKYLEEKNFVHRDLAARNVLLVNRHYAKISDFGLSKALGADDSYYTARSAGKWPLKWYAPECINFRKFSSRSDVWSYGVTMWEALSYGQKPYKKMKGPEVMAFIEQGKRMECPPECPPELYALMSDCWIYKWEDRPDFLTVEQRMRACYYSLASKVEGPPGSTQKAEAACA
Put plainly: Kinase inhibition assay: ZAP70. Type of assay: biochemical. As to conditions: at 1 μM concentration. As to the method: as §1, §2, §3

The target of assay [3] is T3, PYK2 (Homo sapiens, UniProt Q14289).
T3 construct: Purified full-length human SYK, ZAP70, PIM1, PYK2; purchased Carna Biosciences
Put plainly: Kinase inhibition assay: PYK2. Type of assay: biochemical. As to conditions: at 1 μM concentration. The method, then: as §1, §2, §3

In assay [4] the target is T4, FAK (Homo sapiens, UniProt Q05397).
T4 construct: truncated human FAK, RET, FLT3, JAK2, and LRRK2; purchased Carna Biosciences
Nature of the assay: Kinase inhibition assay: FAK. Type of assay: biochemical. As to conditions: at 1 μM concentration. The method, then: as §1, §2, §3

The target of assay [5] is T5, PIM1 (Homo sapiens, UniProt P11309).
T5 construct: Purified full-length human SYK, ZAP70, PIM1, PYK2; purchased Carna Biosciences
Put plainly: Kinase inhibition assay: PIM1. Type of assay: biochemical. As to conditions: at 1 μM concentration. As to the method: as §1, §2
Compounds of the invention were initially diluted to 10 mM in 100% DMSO (CALBIOCHEM™) for storage and made into kinase buffer solution to create a compound concentration ranging from 1 uM and 10 uM. Serial dilutions of compounds of the invention were dispensed into a 96-well plate (GREINER BIOSCIENCES™) at 6 μL each. Purified full-length human SYK, ZAP70, PIM1, PYK2 and truncated human FAK, RET, FLT3, JAK2, and LRRK2 (CARNA BIOSCIENCES™) were diluted in kinase buffer and added to the compound solutions and pre-incubated for 30 minutes at room temperature (1 hour for PYK2). […] The reaction mixture was incubated for 1 hour (2 hours for PYK2). Following the incubation, the stop solution made with EDTA, water, and Lance detection buffer ([…]™) was added (12μL each) to stop phosphorylation. […] Substrate phosphorylation was a function of the 665 nm emission measured following the addition of the detection solution and 50 minutes of incubation. The IC50 value of test compound was calculated at Gradpad Prism 5 unless specified otherwise.

Assay [6] concerns the target T6, RET (Homo sapiens, UniProt P07949).
T6 construct: truncated human FAK, RET, FLT3, JAK2, and LRRK2; purchased Carna Biosciences
T6 sequence (P07949 658-1114 limits assumed): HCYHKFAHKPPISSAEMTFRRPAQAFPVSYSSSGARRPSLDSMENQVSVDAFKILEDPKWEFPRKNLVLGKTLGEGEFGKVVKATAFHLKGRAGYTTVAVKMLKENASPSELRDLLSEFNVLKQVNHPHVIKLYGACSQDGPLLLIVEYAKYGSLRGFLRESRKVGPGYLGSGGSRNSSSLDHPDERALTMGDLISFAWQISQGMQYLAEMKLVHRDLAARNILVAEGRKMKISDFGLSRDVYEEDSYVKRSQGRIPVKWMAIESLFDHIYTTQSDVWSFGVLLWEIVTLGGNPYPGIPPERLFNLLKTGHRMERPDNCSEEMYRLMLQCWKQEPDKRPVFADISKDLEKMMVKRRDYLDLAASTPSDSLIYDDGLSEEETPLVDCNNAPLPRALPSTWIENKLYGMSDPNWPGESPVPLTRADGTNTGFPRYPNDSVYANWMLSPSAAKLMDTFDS
Put plainly: Kinase inhibition assay: RET. The format is biochemical. The method, then: as §1, §2, §3

Assay [7] has as its target T7, FLT3 (Homo sapiens, UniProt P36888).
T7 construct: truncated human FAK, RET, FLT3, JAK2, and LRRK2; purchased Carna Biosciences
T7 sequence (P36888 564-993 limits assumed): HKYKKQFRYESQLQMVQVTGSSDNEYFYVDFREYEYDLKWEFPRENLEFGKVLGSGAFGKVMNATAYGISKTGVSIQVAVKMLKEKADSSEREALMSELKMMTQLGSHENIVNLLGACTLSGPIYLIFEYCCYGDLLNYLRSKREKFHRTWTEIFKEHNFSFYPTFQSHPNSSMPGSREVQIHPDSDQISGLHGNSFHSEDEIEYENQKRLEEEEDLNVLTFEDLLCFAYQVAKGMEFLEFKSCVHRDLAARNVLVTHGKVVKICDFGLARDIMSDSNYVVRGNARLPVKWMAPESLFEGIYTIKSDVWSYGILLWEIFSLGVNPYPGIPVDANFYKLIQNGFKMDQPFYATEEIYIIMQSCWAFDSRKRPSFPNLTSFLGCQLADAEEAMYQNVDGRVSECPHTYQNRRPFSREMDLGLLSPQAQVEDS
Put plainly: Kinase inhibition assay: FLT3. Type of assay: biochemical. As to the method: as §1, §2, §3

In assay [8] the target is T8, LRRK2 (Homo sapiens, UniProt Q5S007).
T8 construct: truncated human FAK, RET, FLT3, JAK2, and LRRK2; purchased Carna Biosciences
Put plainly: Kinase inhibition assay: LRRK2. Type of assay: biochemical. The method, then: as §1, §2, §3

Assay [9] deals with MTC-TT. Nature of the assay: Cell viability assay: RET inhibition. Type of assay: cell-based, human. As to conditions: for IC50: Homo sapiens, 48 h, two days after drug treatment; for inhibition level compared with Vandetinib and Sunitinib: RET induced cancer cell line (MTC-TT). As to the method: To address RET dependent cell viability, the medullary thyroid carcinoma cell line, MTC-TT representing MEN2A was utilized to test compounds of the present invention. MTC-TT were cultured at RPMI containing 15 bovine calf serum (Hyclon™ of Thermo™) and supplemented with 2 mM L-Glutamine The cells were grown at a density of 5×10^4 cells/100 μL/well in duplicate in 96-well plates for one day and treated with different concentrations of test compound. Cell viability for MTC-TT two days after drug treatment was measured by Cell Titer 96 Aqueous One Solution Reagent (Promega™) according to the manufacture instructions.

The target in assay [10] is JAK2 (Homo sapiens, UniProt O60674). Nature of the assay: Kinase inhibition assay: JAK2. Type of assay: biochemical. More on the design: truncated human FAK, RET, FLT3, JAK2, and LRRK2; purchased Carna Biosciences. As to the method:
as §1, §2, §3

SMILES strings stand for the structures.

T3 sequence (Q14289 whole entry): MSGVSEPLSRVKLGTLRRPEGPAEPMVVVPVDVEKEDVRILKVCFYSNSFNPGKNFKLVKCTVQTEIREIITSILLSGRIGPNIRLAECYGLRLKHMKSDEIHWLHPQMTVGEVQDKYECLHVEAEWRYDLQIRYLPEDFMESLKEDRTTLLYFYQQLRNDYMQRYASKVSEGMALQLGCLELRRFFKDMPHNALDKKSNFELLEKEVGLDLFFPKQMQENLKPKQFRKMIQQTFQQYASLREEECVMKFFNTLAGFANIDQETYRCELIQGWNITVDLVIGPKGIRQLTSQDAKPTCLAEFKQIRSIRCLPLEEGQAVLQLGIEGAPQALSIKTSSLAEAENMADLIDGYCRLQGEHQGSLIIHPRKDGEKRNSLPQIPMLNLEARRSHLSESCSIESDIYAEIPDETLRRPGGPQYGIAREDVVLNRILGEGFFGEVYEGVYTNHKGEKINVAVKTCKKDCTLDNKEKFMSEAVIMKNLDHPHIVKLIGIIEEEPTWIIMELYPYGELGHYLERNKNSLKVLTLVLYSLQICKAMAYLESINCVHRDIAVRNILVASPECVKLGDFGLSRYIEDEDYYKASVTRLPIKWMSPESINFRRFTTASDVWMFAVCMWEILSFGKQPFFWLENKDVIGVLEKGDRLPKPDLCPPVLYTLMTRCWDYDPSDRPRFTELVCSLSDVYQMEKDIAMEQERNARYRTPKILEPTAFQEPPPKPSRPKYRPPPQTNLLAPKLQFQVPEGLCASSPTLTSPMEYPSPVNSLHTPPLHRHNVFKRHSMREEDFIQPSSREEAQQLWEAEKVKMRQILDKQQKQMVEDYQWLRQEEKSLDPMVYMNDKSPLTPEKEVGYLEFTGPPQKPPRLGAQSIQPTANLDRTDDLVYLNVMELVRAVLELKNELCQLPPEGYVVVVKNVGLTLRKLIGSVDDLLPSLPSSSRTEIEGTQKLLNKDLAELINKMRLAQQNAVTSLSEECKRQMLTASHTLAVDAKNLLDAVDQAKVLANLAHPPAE
T4 sequence (Q05397 376-1052 limits assumed): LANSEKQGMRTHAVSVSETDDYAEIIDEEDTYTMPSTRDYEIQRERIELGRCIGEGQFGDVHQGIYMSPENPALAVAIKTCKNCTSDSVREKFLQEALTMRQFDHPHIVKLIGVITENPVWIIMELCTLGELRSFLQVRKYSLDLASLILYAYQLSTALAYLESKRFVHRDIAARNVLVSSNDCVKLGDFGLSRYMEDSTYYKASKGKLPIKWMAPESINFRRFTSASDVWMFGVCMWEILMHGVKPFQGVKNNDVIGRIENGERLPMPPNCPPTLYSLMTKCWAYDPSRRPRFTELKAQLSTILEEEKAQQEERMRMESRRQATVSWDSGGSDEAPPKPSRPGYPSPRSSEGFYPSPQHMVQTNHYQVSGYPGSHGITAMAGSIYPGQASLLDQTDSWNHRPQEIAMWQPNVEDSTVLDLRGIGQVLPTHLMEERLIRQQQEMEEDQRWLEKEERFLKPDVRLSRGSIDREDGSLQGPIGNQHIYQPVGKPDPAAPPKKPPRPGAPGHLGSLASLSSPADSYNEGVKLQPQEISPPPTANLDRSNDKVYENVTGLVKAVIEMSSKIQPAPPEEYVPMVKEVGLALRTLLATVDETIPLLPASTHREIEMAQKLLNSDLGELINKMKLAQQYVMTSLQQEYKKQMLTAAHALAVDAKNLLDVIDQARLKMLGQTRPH
JAK2, sequence (O60674 826-1132 limits assumed): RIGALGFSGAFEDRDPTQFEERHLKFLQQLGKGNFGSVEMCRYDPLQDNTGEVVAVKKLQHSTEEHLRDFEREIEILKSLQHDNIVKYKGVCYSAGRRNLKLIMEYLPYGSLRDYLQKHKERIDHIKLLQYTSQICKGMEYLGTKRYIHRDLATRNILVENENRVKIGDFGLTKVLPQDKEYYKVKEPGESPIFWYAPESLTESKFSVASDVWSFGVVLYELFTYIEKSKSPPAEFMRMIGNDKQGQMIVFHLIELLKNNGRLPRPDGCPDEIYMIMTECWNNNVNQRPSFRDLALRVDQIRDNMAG
T5 sequence (P11309 whole entry): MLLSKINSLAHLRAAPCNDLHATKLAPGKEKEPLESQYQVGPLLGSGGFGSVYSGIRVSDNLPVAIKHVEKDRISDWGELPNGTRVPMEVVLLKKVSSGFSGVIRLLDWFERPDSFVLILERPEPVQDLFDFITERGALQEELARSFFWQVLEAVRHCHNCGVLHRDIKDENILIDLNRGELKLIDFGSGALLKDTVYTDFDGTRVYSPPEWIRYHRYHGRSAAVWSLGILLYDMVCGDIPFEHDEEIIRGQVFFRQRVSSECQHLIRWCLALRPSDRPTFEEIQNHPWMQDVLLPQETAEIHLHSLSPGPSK
T8 sequence (Q5S007 970-2527 limits assumed): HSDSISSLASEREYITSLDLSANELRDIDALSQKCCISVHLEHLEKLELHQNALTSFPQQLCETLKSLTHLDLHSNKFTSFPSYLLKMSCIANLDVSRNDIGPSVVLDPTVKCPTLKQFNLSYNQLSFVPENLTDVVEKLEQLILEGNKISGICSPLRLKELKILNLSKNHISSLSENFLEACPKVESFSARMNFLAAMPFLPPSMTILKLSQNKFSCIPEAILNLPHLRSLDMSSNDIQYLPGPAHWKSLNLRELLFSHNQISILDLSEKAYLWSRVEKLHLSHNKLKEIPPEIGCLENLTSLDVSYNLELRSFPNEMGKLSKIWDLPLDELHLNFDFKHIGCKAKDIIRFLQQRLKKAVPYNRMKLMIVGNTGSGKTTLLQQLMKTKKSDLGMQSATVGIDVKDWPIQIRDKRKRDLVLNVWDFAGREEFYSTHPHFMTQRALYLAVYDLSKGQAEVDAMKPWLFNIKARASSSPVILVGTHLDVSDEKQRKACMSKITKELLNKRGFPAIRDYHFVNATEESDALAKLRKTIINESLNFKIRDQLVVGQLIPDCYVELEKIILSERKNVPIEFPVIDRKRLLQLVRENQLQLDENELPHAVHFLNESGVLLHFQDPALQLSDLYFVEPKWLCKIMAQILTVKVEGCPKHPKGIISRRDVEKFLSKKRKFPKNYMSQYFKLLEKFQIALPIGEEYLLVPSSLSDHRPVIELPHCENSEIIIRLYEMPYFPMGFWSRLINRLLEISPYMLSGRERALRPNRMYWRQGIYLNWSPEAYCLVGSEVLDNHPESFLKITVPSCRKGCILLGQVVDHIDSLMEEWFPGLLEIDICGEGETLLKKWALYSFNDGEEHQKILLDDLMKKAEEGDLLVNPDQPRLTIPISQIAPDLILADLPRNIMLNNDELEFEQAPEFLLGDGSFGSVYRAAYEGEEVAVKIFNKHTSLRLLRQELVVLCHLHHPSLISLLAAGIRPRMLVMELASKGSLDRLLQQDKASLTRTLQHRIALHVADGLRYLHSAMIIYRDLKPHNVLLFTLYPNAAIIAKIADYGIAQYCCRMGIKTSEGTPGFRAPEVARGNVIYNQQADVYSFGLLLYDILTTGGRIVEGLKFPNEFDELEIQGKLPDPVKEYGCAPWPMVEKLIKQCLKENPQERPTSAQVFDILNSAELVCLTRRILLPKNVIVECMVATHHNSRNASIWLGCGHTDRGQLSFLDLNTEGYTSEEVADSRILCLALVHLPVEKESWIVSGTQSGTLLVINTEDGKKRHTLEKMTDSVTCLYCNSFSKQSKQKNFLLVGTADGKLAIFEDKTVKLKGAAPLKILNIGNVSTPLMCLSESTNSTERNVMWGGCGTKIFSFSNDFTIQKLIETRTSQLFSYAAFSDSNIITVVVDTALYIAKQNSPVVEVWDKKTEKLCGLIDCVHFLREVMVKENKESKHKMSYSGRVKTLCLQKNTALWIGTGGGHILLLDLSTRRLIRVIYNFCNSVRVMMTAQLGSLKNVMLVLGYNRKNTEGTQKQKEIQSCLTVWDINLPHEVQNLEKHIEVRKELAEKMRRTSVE

For orientation: inhibition means the relative decrease from the control value, in per cent. `Cc1cc(C)cc(Nc2ncc(F)c(-n3cc(C)c(CO)c3)n2)c1` [Compound 14, (1-(2-(3,5-dimethyl-phenylamino)-5-fluoro-pyrimidin-4-yl)-4-methyl-1H-pyrrol-3-yl)methanol]: the inhibition at 1 µM was found to be 82.7% in assay [1]; 41.3% in [2]; 30.6% in assay [3]; 36.9% in assay [4]; 21.9% in assay [5].
The term IC50 denotes the point on the concentration scale where inhibition reaches its midpoint. Higher therefore signals a need for much substance. Take `COc1cc(Nc2ncc(C)c(-n3cc(C)c(CN4CCN(CCO)CC4)c3)n2)cc(OC)c1OC` [Compound 40, 2-(4-((4-methyl-1-(5-methyl-2-(3,4,5-trimethoxyphenylamino)pyrimidin-4-yl)-1H-pyrrol-3-yl)methyl)piperazin-1-yl)ethanol]: the IC50 in assay [6] stood at 10.2 nM; in assay [7], 0.17 nM; in [8] it was 275 nM; in assay [9], 78.4 nM; in assay [10], 3.7 nM. For the same compound, in assay [9], the “inhibition level compared with Vandetinib and Sunitinib” value was “greater than those exhibited by Vandetinib and Sunitinib”.
On to `Cc1cc(C)cc(Nc2ncc(F)c(-n3cc(C(=O)N4CC[C@@H](O)C4)c(C)n3)n2)c1` [Compound 38, (R)-(1-(2-(3,5-dimethylphenylamino)-5-fluoropyrimidin-4-yl)-3-methyl-1H-pyrazol-4-yl)(3-hydroxypyrrolidin-1-yl)methanone], for which the inhibition at 1 µM was determined as 41.8% in assay [1]; 19.3% in [2]; 18% in assay [3]; 17.7% in assay [4]; 3.7% in assay [5].
With `Cc1cn(-c2nc(Nc3cc(C)c(OCCO)c(C)c3)ncc2C)cc1CN(C)C` [Compound 121, 2-(4-(4-(3-((dimethylamino)methyl)-4-methyl-1H-pyrrol-1-yl)-5-methylpyrimidin-2-ylamino)-2,6-dimethylphenoxy)ethanol], the IC50 came to 2.3 nM in assay [6], 1.7 nM in assay [7], 34.6 nM in assay [9] and 2.5 nM in assay [10]. Moreover, in [9], the “inhibition level compared with Vandetinib and Sunitinib” value is “greater than those exhibited by Vandetinib and Sunitinib”.
Take `COc1cc(Nc2ncc(F)c(-n3cc(C)c(CO)c3)n2)cc(OC)c1` [Compound 16, (1-(2-(3,5-dimethoxy-phenylamino)-5-fluoro-pyrimidin-4-yl)-4-methyl-1H-pyrrol-3-yl)methanol]: the inhibition at 1 µM in assay [1] worked out at 80.7%; in assay [2] it was 31.9%; in assay [3], 84.9%; in assay [4], 34.1%.
